Measured values reported in EP3685668B1, “COMPOSITION COMPRISING ACIBENZOLAR-S-METHYL AS EFFECTIVE INGREDIENT FOR CONTROLLING BURSAPHELENCHUS XYLOPHILUS DISEASE AND METHOD FOR CONTROLLING BURSAPHELENCHUS XYLOPHILUS USING SAME” (Industry Foundation of Chonnam National University, priority 2017, dated 2019).

Tests used:
Test in all cases: qRT-PCR expression of induced resistance gene in pine tree callus
Assay type in all cases: cell-based
[1] = tested on: PR_5 family; conditions: for Expression of induced resistance gene, PR_5 family: 24 hours
Method: (§1) For in vitro analysis of induced resistance, the expression of PR genes and other plant defense-related genes was determined, which are evolved in various defense mechanisms including induced resistance. The primers of sixteen induced resistance-related genes of pine tree used in this invention were listed in the below and elongation factor_1 alpha were used as a reference gene. [Table 4] The primer list of defense resistance-related genes
(§2) After the treatment with 200 µg / mℓ of candidates of the selected induced resistance material, expression of the induced resistance-related gene in pine callus was determined by qRT-PCR using the primer pairs of defense resistance-related genes in Table 4. As a candidate group of an induced resistance material in pine tree, acibenzolar-S-methyl (ASM), TDL (Tiadinil), ITL (Isotianil), PBZ (Probenzole), AZO (Azoxystrobin), VMA (Validamycin A), MeJA (Methyl jasmonate), BABA (DL-3-aminobutyric acid), 2,3-BDO (2,3-Butanediol), GABA (r-Aminobutyric acid), glucan (Glucan), ER (Ergosterol), and AZA (Azelaic acid) were used. For the in vitro analysis of the expression of induced resistance gene in pine callus, the selected induced resistance materials were applied with 500 µℓ of LM liquid medium on a surface of pine tree callus (100 mg) in 12-well microplate to give final concentration of 200 µg/mℓ. Then, the callus surface was sufficiently reacted for 24 hours with the candidate of pine tree induced resistance material by shaking at 50 rpm in a 25 °C shaking incubator under dark condition. RNAs were extracted from the callus after completion of the reaction with an induced resistance material, followed by synthesis of cDNAs. Then, by carrying out qRT-PCR, the expression of induced resistance genes was determined. [Table 5] Expression of induced resistance gene in pine tree callus by TDL, PBZ, ASM, ITL, AZO, VMA, glucan, and AZA
(§3) Based on the results of assay using young plants and gene expression by selected induce resistance materials, it seemed that acibenzolar-S-methyl had the most excellent effect. Thus, the following tests were carried out using acibenzolar-S-methyl only. Expression of the induced resistance genes at different culture time after the chemical treatment was examined. For the in vitro assay, LM medium containing pine tree callus was treated with acibenzolar-S-methyl at concentration of 200 µg / mℓ, followed by reaction for 1 day, 7 days, or 14 days in a 25°C shaking incubator under dark condition. RNAs were extracted from the callus after the reaction followed by synthesis of cDNAs. Then, by carrying out qRT-PCR, the expression of the induced resistance genes was determined. Depending on reaction time after the treatment, i.e., after 1 day, 7 days, or 14 days, the expression of the obtained induced resistance genes was examined. As a result of the in vitro callus assay depending on reaction time after the treatment with acibenzolar-S-methyl, the expression of the induced resistance-related genes is the highest at 1 day after the treatment with acibenzolar-S-methyl and gradually diminished over time, as it is shown in Table 7. In this regard, it is contemplated that the expression of genes acquired by acibenzolar-S-methyl is not maintained in highly expressed state until the pathogen invasion and just memorized with at minimum level so that the energy consumption by plant can be efficiently managed. [Table 7] Expression of induced resistance gene in pine tree callus by acibenzolar-S-methyl depending on reaction time
(§4) To have an in vitro assay according to different methods of treatment with acibenzolar-S-methyl, two separate treatment methods, i.e., surface treatment (spraying treatment) of pine tree callus and direct application of the induced resistance material to an LM medium containing pine tree callus, were performed. […]

[2] = tested on: Hydroxyproline; conditions: for Expression of induced resistance gene, Hydroxyproline: 24 hours
Method: as §1, §2, §3, §4

[3] = tested on: PR_1b family; conditions: 200 µg/mℓ; for Expression of induced resistance gene, PR_1b family: 24 hours
Method: as §1, §2, §3, §4

[4] = tested on: PR_4 family; conditions: for Expression of induced resistance gene, PR_4 family: 24 hours
Method: as §1, §2, §3, §4

[5] = tested on: Metallothionein; conditions: for Expression of induced resistance gene, Metallothionein: 24 hours
Method: as §1, §2, §3, §4

[6] = tested on: Heat shock 70; conditions: for Expression of induced resistance gene, Heat shock 70: 24 hours
Method: as §1, §2, §3, §4

[7] = tested on: PR_3 family class 1; conditions: for Expression of induced resistance gene, PR_3 family class 1: 24 hours
Method: as §1, §2, §3, §4

[8] = 200 µg/mℓ, Direct supplying as a medium component
[9] = concentration series, 200 µg/mℓ

Structure (SMILES): CSC(=O)c1cccc2nnsc12 [ASM, acibenzolar-S-methyl]
- Expression of induced resistance gene, PR_5 family ([1]; 200 µg/mℓ): 2.93
- Expression of induced resistance gene, PR_5 family [1, 8]: 5.9
- Expression of induced resistance gene, PR_5 family ([1]; 200 µg/mℓ, Spraying): 2.93
- Gene expression level, PR_5 family ([1]; 200 µg/mℓ, After 1 day): 5.9
- Gene expression level, PR_5 family ([1]; 200 µg/mℓ, After 7 days): 0.45
- Gene expression level, PR_5 family ([1]; 200 µg/mℓ, After 14 days): 0.17
- Gene expression level, PR_5 family ([1]; concentration series, 2 µg/mℓ): 4
- Gene expression level, PR_5 family ([1]; concentration series, 20 µg/mℓ): 8.515
- Gene expression level, PR_5 family [1, 9]: 2.809
- Expression of induced resistance gene, Hydroxyproline ([2]; 200 µg/mℓ): 1.79
- Expression of induced resistance gene, Hydroxyproline [2, 8]: 7.89
- Expression of induced resistance gene, Hydroxyproline ([2]; 200 µg/mℓ, Spraying): 1.79
- Gene expression level, Hydroxyproline ([2]; 200 µg/mℓ, After 1 day): 10.06
- Gene expression level, Hydroxyproline ([2]; 200 µg/mℓ, After 7 days): 1.2
- Gene expression level, Hydroxyproline ([2]; 200 µg/mℓ, After 14 days): 0.32
- Gene expression level, Hydroxyproline ([2]; concentration series, 2 µg/mℓ): 3.138
- Gene expression level, Hydroxyproline ([2]; concentration series, 20 µg/mℓ): 4.438
- Gene expression level, Hydroxyproline [2, 9]: 4.627
- Expression of induced resistance gene, PR_1b family [3]: 2
- Expression of induced resistance gene, PR_1b family ([3]; Direct supplying as a medium component): 6.28
- Expression of induced resistance gene, PR_1b family ([3]; Spraying): 2
- Gene expression level, PR_1b family ([3]; After 1 day): 6.28
- Gene expression level, PR_1b family ([3]; After 7 days): 0.72
- Gene expression level, PR_1b family ([3]; After 14 days): 0.4
- Gene expression level, PR_1b family ([3]; concentration series): 0.9395
- Expression of induced resistance gene, PR_4 family ([4]; 200 µg/mℓ): 2.6
- Expression of induced resistance gene, PR_4 family [4, 8]: 5.46
- Expression of induced resistance gene, PR_4 family ([4]; 200 µg/mℓ, Spraying): 2.6
- Gene expression level, PR_4 family ([4]; 200 µg/mℓ, After 1 day): 5.46
- Gene expression level, PR_4 family ([4]; 200 µg/mℓ, After 7 days): 0.74
- Gene expression level, PR_4 family ([4]; 200 µg/mℓ, After 14 days): 0.2
- Gene expression level, PR_4 family ([4]; concentration series, 2 µg/mℓ): 2.25
- Gene expression level, PR_4 family ([4]; concentration series, 20 µg/mℓ): 2.056
- Gene expression level, PR_4 family [4, 9]: 1.24
- Expression of induced resistance gene, Metallothionein ([5]; 200 µg/mℓ): 0.11
- Expression of induced resistance gene, Metallothionein [5, 8]: 29.86
- Expression of induced resistance gene, Metallothionein ([5]; 200 µg/mℓ, Spraying): 0.11
- Gene expression level, Metallothionein ([5]; 200 µg/mℓ, After 1 day): 7.89
- Gene expression level, Metallothionein ([5]; 200 µg/mℓ, After 7 days): 0.41
- Gene expression level, Metallothionein ([5]; 200 µg/mℓ, After 14 days): 0.29
- Gene expression level, Metallothionein ([5]; concentration series, 2 µg/mℓ): 0.5946
- Gene expression level, Metallothionein ([5]; concentration series, 20 µg/mℓ): 0.79
- Gene expression level, Metallothionein [5, 9]: 0.9266
- Expression of induced resistance gene, Heat shock 70 ([6]; 200 µg/mℓ): 1.75
- Expression of induced resistance gene, Heat shock 70 [6, 8]: 10.06
- Expression of induced resistance gene, Heat shock 70 ([6]; 200 µg/mℓ, Spraying): 1.75
- Gene expression level, Heat shock 70 ([6]; 200 µg/mℓ, After 1 day): 2.27
- Gene expression level, Heat shock 70 ([6]; 200 µg/mℓ, After 7 days): 0.97
- Gene expression level, Heat shock 70 ([6]; 200 µg/mℓ, After 14 days): 0.77
- Gene expression level, Heat shock 70 ([6]; concentration series, 20 µg/mℓ): 23.26
- Gene expression level, Heat shock 70 [6, 9]: 53.45
- Expression of induced resistance gene, PR_3 family class 1 ([7]; 200 µg/mℓ): 2.04
- Expression of induced resistance gene, PR_3 family class 1 [7, 8]: 2.85
- Expression of induced resistance gene, PR_3 family class 1 ([7]; 200 µg/mℓ, Spraying): 2.04
- Gene expression level, PR_3 family class 1 ([7]; 200 µg/mℓ, After 1 day): 2.85
- Gene expression level, PR_3 family class 1 ([7]; 200 µg/mℓ, After 7 days): 1.38
- Gene expression level, PR_3 family class 1 ([7]; 200 µg/mℓ, After 14 days): 0.29
- Gene expression level, PR_3 family class 1 ([7]; concentration series, 20 µg/mℓ): 3.506
- Gene expression level, PR_3 family class 1 [7, 9]: 3.605
